Measured values reported in ChEMBL document CHEMBL3856225, “Design, synthesis and biological evaluation of 5-benzylidene-2-iminothiazolidin-4-ones as selective GSK-3β inhibitors” (Eur J Med Chem, 2016).

Legend:
[1] = biological target: T1, Glycogen synthase kinase-3 beta (Homo sapiens, UniProt P49841); test: Inhibition of His-tagged full length human recombinant GSK-3beta expressed in Baculovirus at 0.5 uM using Ser/Thr9 peptide as substrate by Z' LYTE assay relative to control
Target sequence in this assay (P49841 whole entry, looked up): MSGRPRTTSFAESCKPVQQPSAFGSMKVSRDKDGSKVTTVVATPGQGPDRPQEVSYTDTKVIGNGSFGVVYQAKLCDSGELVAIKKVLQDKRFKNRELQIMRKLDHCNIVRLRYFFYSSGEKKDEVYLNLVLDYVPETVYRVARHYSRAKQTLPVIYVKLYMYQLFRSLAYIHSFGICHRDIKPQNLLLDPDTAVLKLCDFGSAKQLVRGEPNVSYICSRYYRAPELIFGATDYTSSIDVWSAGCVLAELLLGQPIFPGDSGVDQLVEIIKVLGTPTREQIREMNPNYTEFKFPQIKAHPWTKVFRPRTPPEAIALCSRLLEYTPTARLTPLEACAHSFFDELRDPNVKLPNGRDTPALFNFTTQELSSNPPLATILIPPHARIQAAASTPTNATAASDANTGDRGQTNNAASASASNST

[2] = biological target: T1, Glycogen synthase kinase-3 beta; test: Inhibition of His-tagged full length human recombinant GSK-3beta expressed in Baculovirus using Ser/Thr9 peptide as substrate by Z' LYTE assay
Target sequence in this assay (P49841 whole entry): as the sequence (P49841 whole entry, looked up) above

[3] = biological target: Cyclin-dependent kinase 2 (Homo sapiens) (UniProt P24941); test: Inhibition of GST-tagged human recombinant CDK2 assessed as residual activity at 2 uM using Ser/Thr12 peptide as substrate by Z' LYTE assay relative to control

inhibition [1] | IC50 [2] | Activity [3] | Structure (SMILES)
> 50% | 27.1 nM | 63.2% | O=C1N=C(NCc2ccccc2)S/C1=C\c1ccc(O)cc1
> 50% | 84.8 nM | – | N=C1NC(=O)/C(=C/c2ccc(O)c(C(=O)O)c2)S1
> 50% | 2.1 nM | 73% | COc1ccc(/C=C2\S/C(=N\Cc3ccccc3)NC2=O)cc1[N+](=O)[O-]
> 50% | 24 nM | 68.4% | O=C1N/C(=N/Cc2ccccc2)S/C1=C\c1ccc(Cl)c([N+](=O)[O-])c1
> 50% | 27.7 nM | 69.6% | O=C1N/C(=N/c2ccccc2)S/C1=C\c1ccc(O)cc1
> 50% | 40 nM | 68.9% | O=C1N/C(=N/c2ccccc2)S/C1=C\c1ccc(F)cc1
> 50% | 44.3 nM | 53.8% | COc1ccc(/C=C2\S/C(=N\Cc3ccccc3)NC2=O)cc1OC
> 50% | – | – | COc1cc(/C=C2\SC(=N)NC2=O)ccc1O
> 50% | 51.7 nM | 39.1% | CCOc1cc(/C=C2\S/C(=N\Cc3ccccc3)NC2=O)ccc1O
> 50% | 80.5 nM | – | COc1ccc(/C=C2\SC(=N)NC2=O)cc1OC
